# Experimental data from patent US20250275953A1, “VODOBATINIB FOR REDUCING PROGRESSION OF PARKINSON'S DISEASE” (Sun Pharma Advanced Research Company Ltd., priority 2022, published 2025).
# “And” between values parts separate entries of the source, which are not always exact repeats. Identical values can stand only once. Like-named read-outs stand apart in the source and are kept apart here.
# Assay: Plasma pharmacokinetics, Parkinson's disease patients, once daily for 14 days
# Type: in vivo, human
# Conditions: PD patients; for AUC(0-t) / AUC / half-life / Cmax / Tmax: human; for AUC(0-t): read-out: AUC0-24 Mean
# Text: Of these, 44 subjects completed the study. An additional 10 subjects were enrolled in the open label part of the study, of these, one subject was discontinued due to an AE of vomiting.
# Safety population was comprised of 48 subjects (not including those in the open label cohorts) and PK population was comprised of 36 subjects from double blind part and 10 subjects from open label part of the study. No subjects were discontinued from the study due to protocol deviation.
# The PK analysis was performed on the PK population and safety analysis was performed on this population as per the protocol described before.
# Study NCT02970019 was a multi-center safety and tolerability study of vodobatinib in 60 subjects with Parkinson's Disease (diagnosed with PD according to the Brain Bank criteria of the United Kingdom Parkinson's Disease Society) who were randomized to receive placebo or various daily doses of vodobatinib for 14 days in a parallel assignment design with quadruple masking (participant, care provider, investigator, and outcomes assessor.) In study NCT02970019, consecutive cohorts of up to eight subjects received once-daily doses of 6, 12, 18, 24, 48, 96, 192, or 384 mg of study drug for 14 days, with six subjects in each cohort on vodobatinib and two subjects in each cohort on placebo. An alternating panel design was used such that subjects in the 6 and 18 mg cohorts were the same, and subjects in the 12 and 24 mg cohorts were the same, thus yielding 48 total individuals enrolled in the eight cohorts. There was a wash-out period of 14 days between each were studied in sequential ascending dose cohorts. In parallel to the double-blind cohorts, up to four subjects per dose cohort were enrolled in an open-label study of vodobatinib to receive 24, 48 or 96 mg once-daily doses of for 14 days. These subjects underwent lumbar puncture to collect CSF on Day 1, and 2-3 h after the last morning dose on Day 14. PK blood draws (for both double-blind and open label) were collected at pre-dose (˜30 min) and at 0.5, 1, 2, 4, 8, 12 and 24 h post-dose on Days 1 and 14.
# Vodobatinib levels in plasma and CSF were determined using a fully validated LC-MS/MS assay with lower limits of quantitation (LLOQ) of 2.5 ng/mL and 0.05 ng/mL, respectively. PK analyses were performed using standard non-compartmental analysis with Phoenix® WinNonlin® software Version 6.4 to estimate the PK parameters Cmax, Tmax, AUCtau and Css. Descriptive statistics were used to characterize vodobatinib concentrations and PK parameters in plasma and CSF. Statistical calculations were performed with SAS software (Version 9.4, SAS Institute, Cary, North Carolina, USA).
compound,measurement,setting,value
Cc1ccc(C(=O)NNC(=O)c2c(C)cccc2Cl)cc1C#Cc1cnc2ccccc2c1 [N′-(2-chloro-6-methylbenzoyl)-4-methyl-3-[2-(3-quinolyl)ethynyl]-benzohydrazide],Max Conc Geo. Mean,6 mg,138.72 ng/mL
same,Max Conc Mean,6 mg,182 ng/mL and 181.67 ng/mL
same,Max Conc Median,6 mg,133.50 ng/mL
same,Max Conc Geo. Mean,12 mg,270.17 ng/mL
same,Max Conc Mean,12 mg,301.00 ng/mL
same,Max Conc Median,12 mg,242.50 ng/mL
same,Max Conc Geo. Mean,18 mg,300.12 ng/mL
same,Max Conc Mean,18 mg,308.50 ng/mL
same,Max Conc Median,18 mg,310.00 ng/mL
same,Max Conc Geo. Mean,24 mg,677.41 ng/mL
same,Max Conc Mean,24 mg,715.25 ng/mL
same,Max Conc Median,24 mg,657.00 ng/mL
same,Max Conc Geo. Mean,48 mg,930.30 ng/mL
same,Max Conc Mean,48 mg,1110.44 ng/mL
same,Max Conc Median,48 mg,844.00 ng/mL
same,Max Conc Geo. Mean,96 mg,2298.86 ng/mL
same,Max Conc Mean,96 mg,2802.50 ng/mL
same,Max Conc Median,96 mg,2350.00 ng/mL
same,Max Conc Geo. Mean,192 mg,2561.39 ng/mL
same,Max Conc Mean,192 mg,3233.80 ng/mL
same,Max Conc Median,192 mg,2580.00 ng/mL
same,Max Conc Geo. Mean,384 mg,4198.52 ng/mL
same,Max Conc Mean,384 mg,4512 ng/mL and 4512.00 ng/mL
same,Max Conc Median,384 mg,5320.00 ng/mL
same,AUC(0-t),"6 mg, Day 14, plasma",1250 ng·h/mL
same,AUC,"6 mg, read-out: AUC Over Dosing Interval Geo. Mean",1090 ng·h/mL
same,AUC,"6 mg, read-out: AUC Over Dosing Interval Mean",1250 ng·h/mL
same,AUC,"6 mg, read-out: AUC Over Dosing Interval Median",1040 ng·h/mL
same,AUC,"6 mg, read-out: AUC Over Dosing Interval Min, Max",470 to 2360 ng·h/mL
same,half-life,"6 mg, read-out: Half-Life Lambda Z Geo. Mean (converted)",11.1 h
same,half-life,"6 mg, read-out: Half-Life Lambda Z Mean (converted)",11.1 h
same,half-life,"6 mg, read-out: Half-Life Lambda Z Median (converted)",11.1 h
same,half-life,"6 mg, read-out: Half-Life Lambda Z Min, Max (converted)",11.1 h
same,AUC,"12 mg, read-out: AUC Over Dosing Interval Geo. Mean",2710 ng·h/mL
same,AUC,"12 mg, read-out: AUC Over Dosing Interval Mean",3250 ng·h/mL
same,AUC,"12 mg, read-out: AUC Over Dosing Interval Median",2530 ng·h/mL
same,AUC,"12 mg, read-out: AUC Over Dosing Interval Min, Max",1440 to 8240 ng·h/mL
same,AUC,"18 mg, read-out: AUC Over Dosing Interval Geo. Mean",2860 ng·h/mL
same,AUC,"18 mg, read-out: AUC Over Dosing Interval Mean",3370 ng·h/mL
same,AUC,"18 mg, read-out: AUC Over Dosing Interval Median",4160 ng·h/mL
same,AUC,"18 mg, read-out: AUC Over Dosing Interval Min, Max",908 to 4260 ng·h/mL
same,half-life,"18 mg, read-out: Half-Life Lambda Z Mean (converted)",13.5 h
same,half-life,"18 mg, read-out: Half-Life Lambda Z Median (converted)",13.5 h
same,half-life,"18 mg, read-out: Half-Life Lambda Z Min, Max (converted)",13.5 h
same,AUC,"24 mg, read-out: AUC Over Dosing Interval Geo. Mean",5250 ng·h/mL
same,AUC,"24 mg, read-out: AUC Over Dosing Interval Mean",5720 ng·h/mL
same,AUC,"24 mg, read-out: AUC Over Dosing Interval Median",6640 ng·h/mL
same,AUC,"24 mg, read-out: AUC Over Dosing Interval Min, Max",2460 to 8080 ng·h/mL
same,half-life,"24 mg, read-out: Half-Life Lambda Z Geo. Mean (converted)",10.5 h
same,half-life,"24 mg, read-out: Half-Life Lambda Z Mean (converted)",10.6 h
same,half-life,"24 mg, read-out: Half-Life Lambda Z Median (converted)",10.6 h
same,half-life,"24 mg, read-out: Half-Life Lambda Z Min, Max (converted)",8.9 to 12.4 h
same,AUC,"48 mg, read-out: AUC Over Dosing Interval Geo. Mean",7010 ng·h/mL
same,AUC,"48 mg, read-out: AUC Over Dosing Interval Mean",7910 ng·h/mL
same,AUC,"48 mg, read-out: AUC Over Dosing Interval Median",8670 ng·h/mL
same,AUC,"48 mg, read-out: AUC Over Dosing Interval Min, Max",2910 to 14200 ng·h/mL
same,half-life,"48 mg, read-out: Half-Life Lambda Z Geo. Mean (converted)",16.6 h
same,half-life,"48 mg, read-out: Half-Life Lambda Z Mean (converted)",19.6 h
same,half-life,"48 mg, read-out: Half-Life Lambda Z Median (converted)",11.3 h
same,half-life,"48 mg, read-out: Half-Life Lambda Z Min, Max (converted)",11.2 to 36.3 h
same,AUC,"96 mg, read-out: AUC Over Dosing Interval Geo. Mean",15100 ng·h/mL
same,AUC,"96 mg, read-out: AUC Over Dosing Interval Mean",17100 ng·h/mL
same,AUC,"96 mg, read-out: AUC Over Dosing Interval Median",13900 ng·h/mL
same,AUC,"96 mg, read-out: AUC Over Dosing Interval Min, Max",6870 to 38700 ng·h/mL
same,half-life,"96 mg, read-out: Half-Life Lambda Z Geo. Mean (converted)",13.2 h
same,half-life,"96 mg, read-out: Half-Life Lambda Z Mean (converted)",15.7 h
same,half-life,"96 mg, read-out: Half-Life Lambda Z Median (converted)",15.5 h
same,half-life,"96 mg, read-out: Half-Life Lambda Z Min, Max (converted)",5.7 to 26.1 h
same,AUC,"192 mg, read-out: AUC Over Dosing Interval Geo. Mean",27600 ng·h/mL
same,AUC,"192 mg, read-out: AUC Over Dosing Interval Mean",33800 ng·h/mL
same,AUC,"192 mg, read-out: AUC Over Dosing Interval Median",24800 ng·h/mL
same,AUC,"192 mg, read-out: AUC Over Dosing Interval Min, Max",13800 to 82700 ng·h/mL
same,AUC(0-t),"384 mg, Day 14, plasma",43800 ng·h/mL
same,AUC,"384 mg, read-out: AUC Over Dosing Interval Geo. Mean",40400 ng·h/mL
same,AUC,"384 mg, read-out: AUC Over Dosing Interval Mean",43800 ng·h/mL
same,AUC,"384 mg, read-out: AUC Over Dosing Interval Median",44500 ng·h/mL
same,AUC,"384 mg, read-out: AUC Over Dosing Interval Min, Max",18600 to 66700 ng·h/mL
same,Cmax,"oral, 6 mg, Day 1, plasma",164 ng/mL
same,AUC(0-t),"oral, 6 mg, Day 1, plasma",794 ng·h/mL
same,Tmax,"oral, 6 mg, Day 1, plasma, read-out: Tmax median",2 h
same,Cmax,"oral, 6 mg, Day 14, plasma",182 ng/mL
same,Tmax,"oral, 6 mg, Day 14, plasma, read-out: Tmax median (range)",2 h
same,Cmax,"oral, 12 mg, Day 1, plasma",255 ng/mL
same,AUC(0-t),"oral, 12 mg, Day 1, plasma",2040 ng·h/mL
same,Tmax,"oral, 12 mg, Day 1, plasma, read-out: Tmax median",2 h
same,Cmax,"oral, 12 mg, Day 14, plasma",301 ng/mL
same,AUC(0-t),"oral, 12 mg, Day 14, plasma",3250 ng·h/mL
same,Tmax,"oral, 12 mg, Day 14, plasma, read-out: Tmax median (range)",2 h
same,Cmax,"oral, 18 mg, Day 1, plasma",410 ng/mL
same,AUC(0-t),"oral, 18 mg, Day 1, plasma",2730 ng·h/mL
same,Tmax,"oral, 18 mg, Day 1, plasma, read-out: Tmax median",2 h
same,Cmax,"oral, 18 mg, Day 14, plasma",309 ng/mL
same,AUC(0-t),"oral, 18 mg, Day 14, plasma",3370 ng·h/mL
same,Tmax,"oral, 18 mg, Day 14, plasma, read-out: Tmax median (range)",3 h
same,Cmax,"oral, 24 mg, Day 1, plasma",385 ng/mL
same,AUC(0-t),"oral, 24 mg, Day 1, plasma",2690 ng·h/mL
same,Tmax,"oral, 24 mg, Day 1, plasma, read-out: Tmax median",4 h
same,Cmax,"oral, 24 mg, Day 14, plasma",715 ng/mL
same,AUC(0-t),"oral, 24 mg, Day 14, plasma",5720 ng·h/mL
same,Tmax,"oral, 24 mg, Day 14, plasma, read-out: Tmax median (range)",2 h
same,Cmax,"oral, 48 mg, Day 1, plasma",964 ng/mL
same,AUC(0-t),"oral, 48 mg, Day 1, plasma",5310 ng·h/mL
same,Tmax,"oral, 48 mg, Day 1, plasma, read-out: Tmax median",4 h
same,Cmax,"oral, 48 mg, Day 14, plasma",1110 ng/mL
same,AUC(0-t),"oral, 48 mg, Day 14, plasma",7910 ng·h/mL
same,Tmax,"oral, 48 mg, Day 14, plasma, read-out: Tmax median (range)",2 h
same,Cmax,"oral, 96 mg, Day 1, plasma",1360 ng/mL
same,AUC(0-t),"oral, 96 mg, Day 1, plasma",10200 ng·h/mL
same,Tmax,"oral, 96 mg, Day 1, plasma, read-out: Tmax median",4 h
same,Cmax,"oral, 96 mg, Day 14, plasma",2800 ng/mL
same,AUC(0-t),"oral, 96 mg, Day 14, plasma",17100 ng·h/mL
same,Tmax,"oral, 96 mg, Day 14, plasma, read-out: Tmax median (range)",2 h
same,Cmax,"oral, 192 mg, Day 1, plasma",1530 ng/mL
same,AUC(0-t),"oral, 192 mg, Day 1, plasma",18600 ng·h/mL
same,Tmax,"oral, 192 mg, Day 1, plasma, read-out: Tmax median",2 h
same,Cmax,"oral, 192 mg, Day 14, plasma",3230 ng/mL
same,AUC(0-t),"oral, 192 mg, Day 14, plasma",33800 ng·h/mL
same,Tmax,"oral, 192 mg, Day 14, plasma, read-out: Tmax median (range)",1 h
same,Cmax,"oral, 384 mg, Day 1, plasma",3020 ng/mL
same,AUC(0-t),"oral, 384 mg, Day 1, plasma",29900 ng·h/mL
same,Tmax,"oral, 384 mg, Day 1, plasma, read-out: Tmax median",4.1 h
same,Cmax,"oral, 384 mg, Day 14, plasma",4510 ng/mL
same,AUC(0-t),"oral, 384 mg, Day 14, plasma",43500 ng·h/mL
same,Tmax,"oral, 384 mg, Day 14, plasma, read-out: Tmax median (range)",1 h
